The text below walks through data of US5256682A, “Isoxazolylimidazole derivatives, process for their production and their use in pharmaceutical agents” (Schering Aktiengesellschaft, priority 1991, dated 1993).

Molecules are shown by their SMILES.

A short description of the data set: Metabolic stability: % of test substance remaining after incubation with mouse liver homogenate. Format: in vitro ADME. The note with it: amount not catabolized, in % of the zero value; 120 minutes, 37° C., pH 7.3; NMRI mouse liver homogenate; HPLC; read-out: % Radical after incubation with mouse liver homogenate. As to the method: The stability of the compounds was measured as follows:
The test substance (1 μg/50 μl of ethanol) was adjusted with 750 μl of Krebs-Henseleit-Ringer phosphate buffer to pH 7.3 and brought together with 750 μl of a liver homogenate at room temperature and mixed. 250 μl of this batch was removed for zero-point determination and the batch was incubated at 37° C. with continuous movement in a water bath. Aliquot parts of 250 μl are removed after 120 minutes, extracted with 3 ml of diethyl ether after 5 minutes of shaking, then centrifuged for 10 minutes under cooling, frozen, the ether is decanted and dried in a dry nitrogen stream. The residue is dissolved in each case in 200 μl of ethanol and the solution is analyzed with HPLC. The liver used was obtained from NMRI mice and homogenized after removal immediate in 4 parts of a 0.25 molar sucrose solution in a Potter-Elvehjem mixer. The homogenate was then filtered through linen and diluted with the same sucrose solution to 1:10 (weight: volume). Aliquot parts of the solution were stored at -18° C.
On to `CCc1cc(-c2ncn(-c3cccc(Oc4ccccc4)c3)c2C)no1` [C, 4-(5-Ethyl-isoxazol-3-yl)-5-methyl-1-(3-phenoxyphenyl)imidazole], for which the remaining at 2 h was found to be 71%. Consider `CCc1nc(-c2ncn(-c3cccc(Oc4ccccc4)c3)c2C)no1` [A, 4-(5-ethyl-1,2,4-oxadiazol-3-yl)-5-methyl-1-(3-phenoxy-phenyl)-imidazole, reference compound], for which the remaining at 2 h is 31%. Take `CCc1cc(-c2ncn(-c3cccc(Oc4ccccc4)c3)c2C)on1` [B, 4-(3-Ethyl-isoxazol-5-yl)-5-methyl-1-(3-phenoxyphenyl)imidazole]: the remaining at 2 h turned out to be 95%. With `COCc1cc(-c2ncn(-c3cccc(Oc4ccccc4)c3)c2C)on1` [D, 4-(3-Methoxymethyl-isoxazol-5-yl)-5-methyl-1-(3-phenoxyphenyl)-imidazole], the remaining at 2 h was determined as 100%.
